Source: patent US20210253575A1, “PYRROLIDINE AMINE COMPOUNDS FOR THE TREATMENT OF AUTOIMMUNE DISEASE” (Hoffmann-La Roche Inc., priority 2018, published 2021)

Each compound was assayed against T1, human TLR8 (Homo sapiens, UniProt Q9NR97) (assay: HEK293-Blue-hTLR-8 cells assay (SEAP reporter, R848 stimulation)). Conditions: HEK293-Blue-hTLR8 cells, R848 ligand, 20 hrs incubation.
T1 sequence (Q9NR97 27-1041): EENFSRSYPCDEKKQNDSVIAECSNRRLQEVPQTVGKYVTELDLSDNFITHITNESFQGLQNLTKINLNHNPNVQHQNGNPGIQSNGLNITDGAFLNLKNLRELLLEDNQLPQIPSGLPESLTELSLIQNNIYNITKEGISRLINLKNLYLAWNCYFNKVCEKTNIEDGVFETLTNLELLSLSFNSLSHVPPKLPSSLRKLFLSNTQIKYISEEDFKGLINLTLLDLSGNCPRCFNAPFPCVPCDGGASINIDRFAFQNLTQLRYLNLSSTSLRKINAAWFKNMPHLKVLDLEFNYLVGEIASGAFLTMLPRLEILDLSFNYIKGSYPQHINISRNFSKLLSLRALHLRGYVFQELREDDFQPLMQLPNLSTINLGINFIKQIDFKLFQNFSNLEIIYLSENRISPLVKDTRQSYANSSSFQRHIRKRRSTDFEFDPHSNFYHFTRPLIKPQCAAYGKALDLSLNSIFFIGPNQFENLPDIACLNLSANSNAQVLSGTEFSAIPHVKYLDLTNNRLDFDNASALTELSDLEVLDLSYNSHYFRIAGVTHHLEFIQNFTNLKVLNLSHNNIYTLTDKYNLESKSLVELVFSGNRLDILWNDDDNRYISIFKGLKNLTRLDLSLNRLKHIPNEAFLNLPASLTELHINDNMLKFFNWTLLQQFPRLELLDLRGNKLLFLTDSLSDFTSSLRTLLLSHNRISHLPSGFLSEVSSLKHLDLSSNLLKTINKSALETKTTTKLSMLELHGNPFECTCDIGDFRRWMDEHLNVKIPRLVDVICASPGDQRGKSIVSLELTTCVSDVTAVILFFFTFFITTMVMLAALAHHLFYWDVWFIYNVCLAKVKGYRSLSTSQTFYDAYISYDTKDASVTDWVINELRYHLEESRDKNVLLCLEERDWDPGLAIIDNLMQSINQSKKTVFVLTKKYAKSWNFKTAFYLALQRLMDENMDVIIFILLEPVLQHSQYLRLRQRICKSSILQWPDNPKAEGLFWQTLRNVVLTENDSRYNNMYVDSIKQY
Format: cell-based
Description: The following tests were carried out in order to determine the activity of the compounds of formula (I) in HEK293-Blue-hTLR-7/8/9 cells assay.
HEK293-Blue-hTLR-8 Cells Assay:
A stable HEK293-Blue-hTLR-8 cell line was purchased from InvivoGen (Cat. #: hkb-htlr8, San Diego, Calif., USA). These cells were originally designed for studying the stimulation of human TLR8 by monitoring the activation of NF-κB. A SEAP (secreted embryonic alkaline phosphatase) reporter gene was placed under the control of the IFN-β minimal promoter fused to five NF-κB and AP-1-binding sites. The SEAP was induced by activating NF-κB and AP-1 via stimulating HEK-Blue hTLR8 cells with TLR8 ligands. Therefore the reporter expression was declined by TLR8 antagonist under the stimulation of a ligand, such as R848, for incubation of 20 hrs. The cell culture supernatant SEAP reporter activity was determined using QUANTI-Blue™ kit (Cat. #: rep-qb1, Invivogen, San Diego, Ca, USA) at a wavelength of 640 nm, a detection medium that turns purple or blue in the presence of alkaline phosphatase.
HEK293-Blue-hTLR8 cells were incubated at a density of 250,000˜450,000 cells/mL in a volume of 170 μL in a 96-well plate in Dulbecco's Modified Eagle's medium (DMEM) containing 4.5 g/L glucose, 50 U/mL penicillin, […], […], 2 mM L-glutamine, 10% (v/v) heat-inactivated fetal bovine serum with addition of 20 μL test compound in a serial dilution in the presence of final DMSO at 1% and 10 μL of 60 uM R848 in above DMEM, perform incubation under 37° C. in a CO2 incubator for 20 hrs. Then 20 μL of the supernatant from each well was incubated with 180 μL Quanti-blue substrate solution at 37° C. for 2 hrs and the absorbance was read at 620-655 nm using a spectrophotometer. The signalling pathway that TLR8 activation leads to downstream NF-κB activation has been widely accepted, and therefore similar reporter assay was modified for evaluating TLR8 antagonist.

Compound | IC50 [nM]
N#Cc1ccc(N2C[C@H](CN3CCC(N4CCNCC4)CC3)[C@@H](C(F)(F)F)C2)c2cccnc12 [Example 52, 5-[(3S,4R)-3-[(4-piperazin-1-yl-1-piperidyl)methyl]-4-(trifluoromethyl)pyrrolidin-1-yl]quinoline-8-carbonitrile] | 88
N#Cc1ccc(N2C[C@H](CN3CC4(CC(N)C4)C3)[C@@H](C(F)(F)F)C2)c2cccnc12 [Example 53, 5-[(3S,4R)-3-[(6-Amino-2-azaspiro[3.3]heptan-2-yl)methyl]-4-(trifluoromethyl)pyrrolidin-1-yl]quinoline-8-carbonitrile] | 146
N#Cc1ccc(N2C[C@H](CN3CCC4(CCNC4)CC3)[C@@H](C(F)(F)F)C2)c2cccnc12 [Example 54, 5-[(3S,4R)-3-(2,8-Diazaspiro[4.5]decan-8-ylmethyl)-4-(trifluoromethyl)pyrrolidin-1-yl]quinoline-8-carbonitrile] | 44
N#Cc1ccc(N2C[C@H](CN3CCC4(CCCNC4)CC3)[C@@H](C(F)(F)F)C2)c2cccnc12 [Example 55, 5-[(3S,4R)-3-(2,9-Diazaspiro[5.5]undecan-9-ylmethyl)-4-(trifluoromethyl)pyrrolidin-1-yl]quinoline-8-carbonitrile] | 42
N#Cc1ccc(N2C[C@H](CN3CCC4(CCNCC4)C3)[C@@H](C(F)(F)F)C2)c2cccnc12 [Example 56, 5-[(3S,4R)-3-(2,8-Diazaspiro[4.5]decan-2-ylmethyl)-4-(trifluoromethyl)pyrrolidin-1-yl]quinoline-8-carbonitrile] | 62
N#Cc1ccc(N2C[C@H](CN3CCCC4(CCNCC4)C3)[C@@H](C(F)(F)F)C2)c2cccnc12 [Example 57, 5-[(3S,4R)-3-(2,9-Diazaspiro[5.5]undecan-2-ylmethyl)-4-(trifluoromethyl)pyrrolidin-1-yl]quinoline-8-carbonitrile] | 85
N#Cc1ccc(N2CC(CN3CCC(N4CCOCC4)CC3)C3(CC3)C2)c2nccnc12 (stereo not drawn) [Example 58, 8-[7-[(4-Morpholino-1-piperidyl)methyl]-5-azaspiro[2.4]heptan-5-yl]quinoxaline-5-carbonitrile] | 91
N#Cc1ccc(N2C[C@H](CN3CCNCC3)[C@@H](C(F)(F)F)C2)c2nccnc12 [Example 59, 8-[(3S,4R)-3-(Piperazin-1-ylmethyl)-4-(trifluoromethyl)pyrrolidin-1-yl]quinoxaline-5-carbonitrile] | 14
N#Cc1ccc(N2C[C@H](CN3CCC(N4CCCC4)CC3)[C@@H](C(F)(F)F)C2)c2nccnc12 [Example 60, 8-[(3S,4R)-3-[(4-Pyrrolidin-1-yl-1-piperidyl)methyl]-4-(trifluoromethyl)pyrrolidin-1-yl]quinoxaline-5-carbonitrile] | 43
N#Cc1ccc(N2C[C@H](CN3CCC(N4CCCCC4)CC3)[C@@H](C(F)(F)F)C2)c2nccnc12 [Example 61, 8-[(3S,4R)-3-[[4-(1-Piperidyl)-1-piperidyl]methyl]-4-(trifluoromethyl)pyrrolidin-1-yl]quinoxaline-5-carbonitrile] | 23
N#Cc1ccc(N2C[C@H](CN3CCC(N4CCCCCC4)CC3)[C@@H](C(F)(F)F)C2)c2nccnc12 [Example 62, 8-[(3S,4R)-3-[[4-(Azepan-1-yl)-1-piperidyl]methyl]-4-(trifluoromethyl)pyrrolidin-1-yl]quinoxaline-5-carbonitrile] | 28
N#Cc1ccc(N2C[C@H](CN3C4CCC3CC(N)C4)[C@@H](C(F)(F)F)C2)c2nccnc12 (stereo partly drawn) [Example 63, 8-[(3S,4R)-3-[(3-amino-8-azabicyclo[3.2.1]octan-8-yl)methyl]-4-(trifluoromethyl)pyrrolidin-1-yl]quinoxaline-5-carbonitrile] | 25
N#Cc1ccc(N2C[C@H](CN3CCC(N)C(F)(F)C3)[C@@H](C(F)(F)F)C2)c2nccnc12 (stereo partly drawn) [Example 64, 8-[(3S,4R)-3-[(4-amino-3,3-difluoro-1-piperidyl)methyl]-4-(trifluoromethyl)pyrrolidin-1-yl]quinoxaline-5-carbonitrile] | 86
N#Cc1ccc(N2CC(CN3CCC4(CCCCN4)CC3)C3(CC3)C2)c2nccnc12 (stereo not drawn) [Example 65, 8-[7-(1,9-Diazaspiro[5.5]undecan-9-ylmethyl)-5-azaspiro[2.4]heptan-5-yl]quinoxaline-5-carbonitrile] | 92
N#Cc1ccc(N2CC(CN3CCC4NCC4C3)C3(CC3)C2)c2nccnc12 (stereo not drawn) [Example 66, 8-[7-(3,7-Diazabicyclo[4.2.0]octan-3-ylmethyl)-5-azaspiro[2.4]heptan-5-yl]quinoxaline-5-carbonitrile] | 82
N#Cc1ccc(N2CC(CN3CCOC4(CCNCC4)C3)C3(CC3)C2)c2nccnc12 (stereo not drawn) [Example 67, 8-[7-(1-Oxa-4,9-diazaspiro[5.5]undecan-4-ylmethyl)-5-azaspiro[2.4]heptan-5-yl]quinoxaline-5-carbonitrile] | 41
N#Cc1ccc(N2CC(CN3CCC(N)CC3)C3(CC3)C2)c2nccnc12 (stereo not drawn) [Example 68, 8-[7-[(4-Amino-1-piperidyl)methyl]-5-azaspiro[2.4]heptan-5-yl]quinoxaline-5-carbonitrile] | 51
N#Cc1ccc(N2C[C@H](CN3CCCC(C(N)=O)C3)[C@@H](C(F)(F)F)C2)c2nccnc12 (stereo partly drawn) [Example 69, 1-[[(3S,4R)-1-(S-cyanoquinoxalin-5-yl)-4-(trifluoromethyl)pyrrolidin-3-yl]methyl]piperidine-3-carboxamide] | 729
N#Cc1ccc(N2C[C@H](CN3CCC4(CC3)CNCCO4)[C@@H](C(F)(F)F)C2)c2nccnc12 [Example 70, 8-[(3S,4R)-3-(1-oxa-4,9-diazaspiro[5.5]undecan-9-ylmethyl)-4-(trifluoromethyl)pyrrolidin-1-yl]quinoxaline-5-carbonitrile] | 20
N#Cc1ccc(N2C[C@H](CNC3CCNCC3)[C@@H](C(F)(F)F)C2)c2nccnc12 [Example 71, 8-[(3S,4R)-3-[(4-piperidylamino)methyl]-4-(trifluoromethyl)pyrrolidin-1-yl]quinoxaline-5-carbonitrile] | 94
C[C@H]1CN(C[C@H]2CN(c3ccc(C#N)c4nccnc34)C[C@@H]2C(F)(F)F)CC[C@H]1N [Example 72, 8-[(3S,4R)-3-[[(3S,4R)-4-amino-3-methyl-1-piperidyl]methyl]-4-(trifluoromethyl)pyrrolidin-1-yl]quinoxaline-5-carbonitrile] | 23
N#Cc1ccc(N2C[C@H](CN3CC4CCC(C3)C4N)[C@@H](C(F)(F)F)C2)c2nccnc12 (stereo partly drawn) [Example 73, 8-[(3S,4R)-3-[(8-amino-3-azabicyclo[3.2.1]octan-3-yl)methyl]-4-(trifluoromethyl)pyrrolidin-1-yl]quinoxaline-5-carbonitrile] | 35
N#Cc1ccc(N2C[C@H](CN3CCC(CN)CC3)[C@@H](C(F)(F)F)C2)c2nccnc12 [Example 74, 8-[(3S,4R)-3-[[4-(aminomethyl)-1-piperidyl]methyl]-4-(trifluoromethyl)pyrrolidin-1-yl]quinoxaline-5-carbonitrile] | 55
CC1(CN)CCCN(C[C@H]2CN(c3ccc(C#N)c4nccnc34)C[C@@H]2C(F)(F)F)C1 (stereo partly drawn) [Example 75, 8-[(3S,4R)-3-[[3-(aminomethyl)-3-methyl-1-piperidyl]methyl]-4-(trifluoromethyl)pyrrolidin-1-yl]quinoxaline-5-carbonitrile] | 31
